Data on 98 compounds can be found in the pKa sets of Baltruschat and Czodrowski (2020).

The structures appear in SMILES notation.

In the case of `Brc1ccc(-c2cnc(-c3ccccc3)o2)cc1`, the pKa (basic group) amounted to 0.65.

Consider `COc1cccc(N)c1`, for which the pKa (basic group) was 4.23.

With `S=C(/N=N/c1ccccc1)NNc1ccccc1`, for the setting “basic group”, the pKa was found to be 4.64.

For `N[C@@H]1C[C@@H]2CCCC[C@H]2C[C@@H]1N`, the pKa (basic group) is 9.93.

On to `C(=C\c1ccncc1)/c1ccccc1`, for which the pKa (basic group) stood at 5.97.

For `Cc1ccc(-c2ncc(-c3ccc(Cl)cc3)o2)cc1`, the pKa (basic group) came to 0.88.

For the setting “acidic group”, `ONc1ccnc2ccccc12` returned a pKa of 6.76.

`CCCCCCc1c(-c2ccccc2)n[nH]c1O` registered a pKa (acidic group) of 8.6.

The compound `O=C([O-])c1cccc([N+](=O)[O-])c1O` came in with a pKa (acidic group) of 10.3.

In turn, `c1cncc(-c2ccoc2)c1` gave a pKa (basic group) of 4.93.

Turning to `CCC(=O)c1ccccc1`, for the setting “basic group”, the pKa stood at 17.6.

In the case of `O=[N+]([O-])c1n[nH]c(Oc2ccccc2)n1`, the pKa (acidic group) was determined as 4.2.

For the setting “basic group”, `CCCCN1CCCCC1C(=O)Nc1c(C)cccc1C` (stereo not given) returned a pKa of 7.27.

In the case of `C[NH2+]CCCC(=O)O`, for the setting “acidic group”, the pKa was found to be 4.03.

As to `Cc1ccc(O)c(CN(C)C)c1`, the pKa is, setting by setting: (acidic group) 11.2; (basic group) 8.68.

As for `Nc1cccc2nccnc12`, for the setting “basic group”, the pKa was determined as 2.62.

For the compound `c1ccc2cc(NCCNc3ccc4ccccc4c3)ccc2c1`, the pKa (basic group) is 3.7.

Regarding `CC(C)n1c(N)nc2ccc(/C(=C\C(N)=O)c3cccc(F)c3F)cc21`, the pKa (basic group) is 6.7.

`CN(C)c1cccc(NC=S)c1` yielded a pKa (acidic group) of 11.8.

Compound `NCC(N)=S` came in with a pKa (basic group) of 7.27.

Regarding `CCCN(C)c1ccccc1`, the pKa (basic group) turned out to be 5.67.

In turn, `Cc1cc(C(C)(C)C)c(O)c(C(C)(C)C)c1` displayed a pKa (acidic group) of 12.6.

Consider `NCCCCCC(=O)[O-]`, for which the pKa (basic group) stood at 10.8.

Take `C1CCN(CCC[NH+]2CCCCC2)CC1`: the pKa (basic group) came to 7.97.

Turning to `O=C([O-])C1(C(=O)O)CC1`, the pKa (acidic group) came out at 7.31.

`NC(Cc1ccncc1)C(=O)[O-]` (stereo not given) returned a pKa (basic group) of 9.22.

Consider `COc1cnccc1C=O`, for which the pKa (basic group) was found to be 4.45.

The compound `COc1ccccc1/C=N/O` registered a pKa (acidic group) of 10.9.

`O=S(=O)([N-]c1ncc(Cl)cn1)c1ccc(O)cc1`: the pKa (acidic group) is 8.84.

In the case of `O=[N+]([O-])c1ccccc1-c1nnn[nH]1`, the pKa (acidic group) turned out to be 2.98.

`CN(C)c1ncc(Br)s1` came in with a pKa (basic group) of 3.66.

Consider `CC(C)(N)C(=O)O`, for which the pKa (basic group) stood at 10.2.

Compound `C[n+]1cccc2cc(O)ccc21` yielded a pKa (acidic group) of 7.15.

On to `Cc1cc(Br)cc(Br)c1O`, for which the pKa (acidic group) turned out to be 7.6.

In turn, `CCN(CC)CCCC(C)=O` returned a pKa (basic group) of 10.1.

In turn, `CN1C2CCC(CC2)N1C` yielded a pKa (basic group) of 7.14.

For the compound `COc1cc2c(cc1OC)NCC2`, the pKa (basic group) amounted to 7.3.

Regarding `Cc1cc(C)nc(NS(=O)(=O)c2ccc(N)cc2)n1`, the pKa reads like this: (acidic group) 7.44; (basic group) 2.35.

Regarding `CC(C)CNC=S`, the pKa (acidic group) was 12.8.

In turn, `O=C(O)[C@@H]1C[C@@H]1c1ccccc1` returned a pKa (acidic group) of 4.82.

With `NCc1ccc(O)c(O)c1`, the pKa (basic group) was determined as 8.6.

The compound `CCCn1ccnc1CO` registered a pKa (basic group) of 7.04.

`CC(c1cccc(F)c1)[N+](=O)[O-]` (stereo not given): the pKa (acidic group) worked out at 7.05.

With `Nc1nc(N)c2ccccc2n1`, the pKa (basic group) was determined as 8.12.

Take `Cc1ccc[n+](O)c1`: the pKa (acidic group) is 1.08.

`CC(C)(C)OOCCC(=O)O` yielded a pKa (acidic group) of 4.36.

For `CN(C)c1nc(/N=N/O)nn1C`, the pKa (acidic group) was found to be 5.94.

For `O=C(Cc1ccccc1)c1cc[n+](Cc2ccc([N+](=O)[O-])cc2)cc1`, where the note is “acidic group”, the pKa was 8.68.

Turning to `Cc1nc2ccccc2n1C`, the pKa (basic group) amounted to 6.55.

Take `CCCCCCNc1ccccc1`: the pKa (basic group) is 5.21.

As for `CCC(O)CN(CC(C)O)C(C)(C)C` (stereo not given), where the note is “basic group”, the pKa stood at 9.5.

`[O-][n+]1cnc2[nH]cnc2c1NCc1ccccc1`: the pKa reads like this: (acidic group) 8.22; (basic group) 2.66.

Take `OCc1nc2ccccc2[nH]1`: the pKa is, setting by setting: (acidic group) 12.1; (basic group) 4.82.

In the case of `NNC(=O)c1cccc(N)c1`, the pKa reads like this: (acidic group) 12.4; (basic group) 3.75.

For the compound `CCC(=O)C(C[C@H](C)N1CCOCC1)(c1ccccc1)c1ccccc1`, the pKa (basic group) came out at 6.73.

Regarding `Nc1ccccc1-c1ccccc1`, the pKa (basic group) was 3.81.

The compound `Oc1ccc2cnccc2c1` had a pKa (acidic group) of 9.15 and a pKa (basic group) of 5.85.

Regarding `C#CCCCCN(C)C`, the pKa (basic group) was found to be 9.24.

With `CN1C(=O)N/C(=C\c2ccccc2)C1=O`, for the setting “acidic group”, the pKa is 9.6.

Turning to `Cc1ccc2c(c1)c1c3c(nccn32)CCC1`, the pKa (basic group) was found to be 6.24.

In the case of `O=C1CC(c2ccccc2)NC(=O)N1` (stereo not given), the pKa (acidic group) stood at 11.2.

For the compound `CN1[C@H]2CC=C(C(=O)[O-])[C@@H]1CC2`, for the setting “basic group”, the pKa was determined as 10.8.

For the compound `CCCCc1cc(Cl)cc(Cl)c1O`, under “acidic group”, the pKa is 8.1.

Where the note is “acidic group”, `O=C(O)CC#Cc1ccccc1` yielded a pKa of 3.44.

`CC1C(=O)OC(C(C)(C)C)C1=O` (stereo not given): the pKa (basic group) was 4.84.

Compound `O=C1C[C@@H]2OCC=C3CN4CC[C@@]56c7ccccc7N1[C@H]5C2[C@@]3(S(=O)(=O)[O-])C[C@H]46` (stereo not given in full) displayed a pKa (basic group) of 7.53.

As to `Oc1ccc(Cl)c2cccnc12`, the pKa (basic group) worked out at 3.68.

With `Nc1ccc(C(=O)[O-])c2ncccc12`, the pKa runs as follows: (acidic group) 12.6; (basic group) 8.46.

For `O=C([O-])C[NH+](CC(=O)[O-])Cc1cc([N+](=O)[O-])ccc1O`, the pKa (acidic group) amounted to 6.18.

`CC(C)N(CCC(C(N)=O)(c1ccccc1)c1ccccn1)C(C)C` (stereo not given): the pKa (acidic group) stood at 10.2.

On to `N#CC(C#N)=C(C#N)Nc1cccc([N+](=O)[O-])c1`, for which, where the note is “acidic group”, the pKa is 3.45.

Take `Cc1nnc(C)n1O`: the pKa (acidic group) came out at 6.5.

With `CCOc1ccnc([O-])n1`, the pKa (basic group) came to 10.7.

Consider `Cc1ccc([N+](=O)[O-])c2c(NCCC[NH+](C)C)ccnc12`, for which the pKa (basic group) is 6.84.

For `CCCc1c(-c2ccccc2)n[nH]c1O`, the pKa (acidic group) came to 8.

Compound `COCCCN` returned a pKa (basic group) of 9.92.

`Cc1cc(C)c2cccc(C)c2n1` registered a pKa (basic group) of 4.48.

`c1ccc2c3c([nH]c2c1)CNCC3`: the pKa (basic group) turned out to be 8.4.

`Cc1cccc(C)c1C(=O)O` came in with a pKa (acidic group) of 3.23.

Where the note is “basic group”, `CC[NH+](CC)CCCC(C)Nc1ccnc2ccc(OC)cc12` (stereo not given) registered a pKa of 8.7.

For the setting “acidic group”, `COC(=O)[n+]1ccc(C)cc1` showed a pKa of 6.15.

Where the note is “basic group”, `Nc1ccc2c(Cl)c3ccccc3nc2c1` returned a pKa of 6.74.

`O=C(N/N=C/c1ccccc1[O-])c1ccncc1` had a pKa (acidic group) of 11.3.

On to `CCCC(=O)C1(c2cccc(O)c2)CCN(C)CC1`, for which the pKa (basic group) is 8.62.

Where the note is “acidic group”, `O=C(O)Cn1ccc2ccccc21` registered a pKa of 3.4.

On to `N#CCC(=O)O`, for which the pKa (acidic group) was determined as 2.46.

Turning to `Cc1cc([O-])nc2c1CCO2`, for the setting “basic group”, the pKa came out at 8.44.

`Oc1cc[n+](O)cc1`: the pKa (acidic group) came out at 2.4.

As for `O=c1cc(CO)occ1O`, the pKa (acidic group) came out at 7.82.

As for `O=C(O)c1cc(=O)cco1`, the pKa (acidic group) was 1.5.

Turning to `NC(=O)C[C@H](N)C(N)=O`, the pKa (acidic group) was 7.

For `Oc1cc(Br)cc(Br)c1`, where the note is “acidic group”, the pKa came out at 8.01.

Under “basic group”, `COC(=O)c1c2ccccc2nc2ccccc12` gave a pKa of 3.45.

Compound `CCC([NH3+])C(=O)O` (stereo not given) gave a pKa (acidic group) of 2.29.

`O=[N+]([O-])C(CO)CO`: the pKa (acidic group) is 9.07.

The compound `N#CC(CCCCC(=O)O)c1ccccc1` (stereo not given) registered a pKa (acidic group) of 4.75.

Turning to `C1CCC(N2CCCC2)CC1`, under “basic group”, the pKa was 10.7.

Consider `ONc1ccc(O)cc1`, for which the pKa (acidic group) came to 9.83.

A word on the pKa: it is the negative logarithm of the acid dissociation constant. A high value points to a group that holds its proton tightly.
